Experimental data from PubChem BioAssay AID1745844 (Carcinogenic Potency Database (CPDB), 2022).
Active and inactive are the calls of the source. No rule for the calls is given here.

System: rodent lifetime carcinogenesis bioassay, tumor incidence TD50
Assay: carcinogenic potency in animals, long-term in vivo studies, CPDB compilation (AID 1745844)

SMILES: FC(F)(Cl)Cl
- TD50 (mouse, strain Swiss, females, inhaled, site: all sites, lesion: leukemia, dosed 78 weeks, study length 104 weeks): 4100 mg/kg/day (inactive)
- TD50 (mouse, strain Swiss, females, inhaled, site: any site (literature study), lesion: malignant tumor, dosed 78 weeks, study length 104 weeks): 3320 mg/kg/day (inactive)
- TD50 (mouse, strain Swiss, females, inhaled, site: any site (literature study), lesion: several types, types named in the paper, dosed 78 weeks, study length 104 weeks): 59000 mg/kg/day (inactive)
- TD50 (mouse, strain Swiss, females, inhaled, site: lung, lesion: adenoma, dosed 78 weeks, study length 104 weeks): 91900 mg/kg/day (inactive)
- TD50 (mouse, strain Swiss, males, inhaled, site: any site (literature study), lesion: malignant tumor, dosed 78 weeks, study length 104 weeks): 33100 mg/kg/day (inactive)
- TD50 (mouse, strain Swiss, males, inhaled, site: any site (literature study), lesion: several types, types named in the paper, dosed 78 weeks, study length 104 weeks): 12100 mg/kg/day (inactive)
- TD50 (mouse, strain Swiss, males, inhaled, site: lung, lesion: adenoma, dosed 78 weeks, study length 104 weeks): 41900 mg/kg/day (inactive)
- carcinogen call (rat, strain Sprague-Dawley, females, inhaled, site: any site (literature study), lesion: malignant tumor, dosed 104 weeks, study length 104 weeks): negative (inactive)
- carcinogen call (rat, strain Sprague-Dawley, females, inhaled, site: any site (literature study), lesion: several types, types named in the paper, dosed 104 weeks, study length 104 weeks): negative (inactive)
- TD50 (rat, strain Sprague-Dawley, females, inhaled, site: liver, lesion: angiosarcoma, dosed 104 weeks, study length 104 weeks): 31300 mg/kg/day (inactive)
- TD50 (rat, strain Sprague-Dawley, males, inhaled, site: adrenal gland, lesion: pheochromocytoma, dosed 104 weeks, study length 104 weeks): 1320 mg/kg/day (inactive)
- carcinogen call (rat, strain Sprague-Dawley, males, inhaled, site: any site (literature study), lesion: malignant tumor, dosed 104 weeks, study length 104 weeks): negative (inactive)
- TD50 (rat, strain Sprague-Dawley, males, inhaled, site: any site (literature study), lesion: several types, types named in the paper, dosed 104 weeks, study length 104 weeks): 555 mg/kg/day (inactive)
- carcinogen call (rat, strain Sprague-Dawley, males, inhaled, site: liver, lesion: angiosarcoma, dosed 104 weeks, study length 104 weeks): negative (inactive)

SMILES: CCN(C#N)N=O
- TD50 (rat, strain MRC-Wistar, females, in drinking water, site: any site (literature study), lesion: several types, types named in the paper, dosed 52 weeks, study length 90 weeks): 3.17 mg/kg/day
- TD50 (rat, strain MRC-Wistar, females, in drinking water, site: respiratory system, lesion: one or several types, types not named, dosed 52 weeks, study length 90 weeks): 2.91 mg/kg/day
- TD50 (rat, strain MRC-Wistar, males, in drinking water, site: respiratory system, lesion: one or several types, types not named, dosed 52 weeks, study length 90 weeks): 4.99 mg/kg/day

SMILES: CC(C)=NNc1nc(-c2ccc([N+](=O)[O-])o2)cs1
- TD50 (rat, strain Holtzman albino (Sprague-Dawley derived), females, in feed, site: forestomach, lesion: squamous-cell papilloma, dosed 36 weeks, study length 54 weeks): 11 mg/kg/day
- TD50 (rat, strain Holtzman albino (Sprague-Dawley derived), females, in feed, site: forestomach, lesion: squamous-cell papilloma, dosed 44 weeks, study length 60 weeks): 6.05 mg/kg/day

SMILES: CCOC(=O)CC(SP(=O)(OC)OC)C(=O)OCC (centres undefined)
- carcinogen call (mouse, strain B6C3F1, females, in feed, site: any site (literature study), lesion: several types, types named in the paper, dosed 103 weeks, study length 103 weeks): negative (inactive)
- TD50 (mouse, strain B6C3F1, females, in feed, site: lung, lesion: alveolar/bronchiolar adenoma + alveolar/bronchiolar carcinoma, dosed 103 weeks, study length 103 weeks): 2760 mg/kg/day
- TD50 (mouse, strain B6C3F1, males, in feed, site: any site (literature study), lesion: several types, types named in the paper, dosed 103 weeks, study length 103 weeks): 472 mg/kg/day (inactive)
- TD50 (mouse, strain B6C3F1, males, in feed, site: liver, lesion: hepatocellular adenoma + hepatocellular carcinoma + neoplastic nodule, dosed 103 weeks, study length 103 weeks): 579 mg/kg/day
- TD50 (mouse, strain B6C3F1, males, in feed, site: lung, lesion: alveolar/bronchiolar adenoma + alveolar/bronchiolar carcinoma, dosed 103 weeks, study length 103 weeks): 3230 mg/kg/day
- TD50 (rat, strain Fischer 344, females, in feed, site: thyroid gland, lesion: c-cell adenoma + c-cell carcinoma, dosed 103 weeks, study length 104 weeks): 296 mg/kg/day (inactive)
- carcinogen call (rat, strain Fischer 344, males, in feed, site: any site (literature study), lesion: several types, types named in the paper, dosed 103 weeks, study length 104 weeks): negative (inactive)
- TD50 (rat, strain Fischer 344, males, in feed, site: liver, lesion: hepatocellular adenoma + hepatocellular carcinoma + neoplastic nodule, dosed 103 weeks, study length 104 weeks): 1560 mg/kg/day

SMILES: COC(N)=O
- carcinogen call (mouse, strain B6C3F1, females, by gavage, site: any site (literature study), lesion: several types, types named in the paper, dosed 103 weeks, study length 104 weeks): negative (inactive)
- TD50 (mouse, strain B6C3F1, females, by gavage, site: liver, lesion: hepatocellular adenoma + hepatocellular carcinoma + neoplastic nodule, dosed 103 weeks, study length 104 weeks): 4700 mg/kg/day
- TD50 (mouse, strain B6C3F1, males, by gavage, site: any site (literature study), lesion: several types, types named in the paper, dosed 103 weeks, study length 104 weeks): 5220 mg/kg/day (inactive)
- TD50 (mouse, strain B6C3F1, males, by gavage, site: liver, lesion: hepatocellular adenoma + hepatocellular carcinoma + neoplastic nodule, dosed 103 weeks, study length 104 weeks): 5080 mg/kg/day
- TD50 (rat, strain Fischer 344, females, by gavage, site: liver, lesion: hepatocellular adenoma + hepatocellular carcinoma + neoplastic nodule, dosed 103 weeks, study length 104 weeks): 839 mg/kg/day
- TD50 (rat, strain Fischer 344, females, by gavage, site: liver, lesion: hepatocellular carcinoma + neoplastic nodule, dosed 103 weeks, study length 104 weeks): 839 mg/kg/day
- TD50 (rat, strain Fischer 344, females, by gavage, site: liver, lesion: hepatocellular carcinoma, dosed 52 weeks, study length 52 weeks): 53.4 mg/kg/day
- TD50 (rat, strain Fischer 344, females, by gavage, site: liver, lesion: hepatocellular carcinoma, dosed 78 weeks, study length 78 weeks): 68.4 mg/kg/day
- TD50 (rat, strain Fischer 344, females, by gavage, site: liver, lesion: neoplastic nodule, dosed 52 weeks, study length 52 weeks): 21.3 mg/kg/day
- TD50 (rat, strain Fischer 344, females, by gavage, site: liver, lesion: neoplastic nodule, dosed 78 weeks, study length 78 weeks): 159 mg/kg/day
- TD50 (rat, strain Fischer 344, females, by gavage, site: liver, lesion: neoplastic nodule, dosed 103 weeks, study length 104 weeks): 979 mg/kg/day
- TD50 (rat, strain Fischer 344, males, by gavage, site: liver, lesion: hepatocellular adenoma + hepatocellular carcinoma + neoplastic nodule, dosed 103 weeks, study length 104 weeks): 2030 mg/kg/day
- TD50 (rat, strain Fischer 344, males, by gavage, site: liver, lesion: hepatocellular carcinoma + neoplastic nodule, dosed 103 weeks, study length 104 weeks): 2030 mg/kg/day
- TD50 (rat, strain Fischer 344, males, by gavage, site: liver, lesion: hepatocellular carcinoma, dosed 52 weeks, study length 52 weeks): 30.4 mg/kg/day
- TD50 (rat, strain Fischer 344, males, by gavage, site: liver, lesion: hepatocellular carcinoma, dosed 78 weeks, study length 78 weeks): 47.8 mg/kg/day
- TD50 (rat, strain Fischer 344, males, by gavage, site: liver, lesion: neoplastic nodule, dosed 52 weeks, study length 52 weeks): 40.7 mg/kg/day
- TD50 (rat, strain Fischer 344, males, by gavage, site: liver, lesion: neoplastic nodule, dosed 78 weeks, study length 78 weeks): 494 mg/kg/day
